Laboratory results taken from patent EP2812315B1, “PYRROLIC DERIVATIVES, PROCESSES FOR PREPARING THE SAME AND THEIR USES AS A DRUG” (Universite Joseph Fourier, priority 2012, dated 2013).
≈ marks a conversion by molar mass, not a printed value.

Columns and labels:
Format in all cases: cell-based
[1] = tested on: HCT116 (human colon tumor); assay: In vitro cytotoxicity; details: triplicate; for inhibition at 10 µM: HCT-116, 10^-5 M in DMSO, read-out: % of cellular growth inhibition; for inhibition at 1 µM: HCT-116, 10^-6 M in DMSO, read-out: % of cellular growth inhibition (converted)
Experimental: (§1) In vitro cytotoxicity was assayed on three cell lines - KB (human mouth carcinoma), MCR5 (human lung fibroblast) and HCT116 (human colon tumor). Results are presented in table III as % of cellular growth inhibition in presence of 10^-5 M and 10^-6 M of the tested bis-pyrrolic derivatives in DMSO (triplicate).

[2] = tested on: KB (human mouth carcinoma); assay: In vitro cytotoxicity; details: triplicate; for inhibition at 10 µM: 10^-5 M in DMSO, read-out: % of cellular growth inhibition; for inhibition at 1 µM: 10^-6 M in DMSO, read-out: % of cellular growth inhibition (converted)
Experimental: as §1

MRC5 = assay: In vitro cytotoxicity; details: MRC5 (human lung fibroblast), triplicate; for inhibition at 10 µM: 10^-5 M in DMSO, read-out: % of cellular growth inhibition; for inhibition at 1 µM: 10^-6 M in DMSO, read-out: % of cellular growth inhibition (converted)
Experimental: as §1

[3] = tested on: Enterobacter cloacae ATCC13047; assay: MIC determination, microdilution method (CLSI M07-A8); details: Enterobacter cloacae ATCC13047; 18 hours incubation; read-out: MIC
Experimental: (§2) The microdilution method recommended by the Clinical and Laboratory Standard Institute [M07-A8, Vol.29, N°2] was used. The activity of pyrrolic compounds was tested against 29 bacterial strains belonging to 17 different species and 12 different genera (Staphylococcus, Streptococcus, Enterococcus, […], Bacillus, Haetttophilus, Escherichia, Klebsiella, Enterobacter, Serratia, Pseudomonas, and Acinetobacter). Bacterial inocula were prepared in Mueller Hinton broth (MH2, bioMérieux, Marcy L'Etoile, France), supplemented with 10% sheep blood for fastidious species (i.e., Streptococcus pneumoniae and Haemophilus influenzae). They were dispensed in 96 well microtiter plates (5 x 10^5 CFU/mL of final inoculum). Pyrrolic compounds were added to the wells as to obtain two-fold serial concentrations (0.25-64 mg/L). Plates were incubated at 37°C, in 5% CO2 enriched atmosphere for fastidious species only. MICs were read after 18 hours incubation of cultures, and corresponded to the minimum pyrrolic compound concentration that allowed complete visual growth inhibition of bacteria. Drug-free cultures served as growth controls. Cultures receiving gentamicine, ciprofloxacine or cefotaxime served as positive controls.

[4] = tested on: Pseudomonas aeruginosa CIP 5933; assay: as above; details: CIP5933; Pseudomonas aeruginosa CIP 5933; 18 hours incubation; read-out: MIC
Experimental: as §2

[5] = tested on: Staphylococcus aureus (MRSA 252); assay: Other MIC determination, microdilution method (CLSI M07-A9) with modifications; details: 10^6 CFU/ml, 18h at 37 °C
Experimental: (§3) The microdilution method recommended by the Clinical and Laboratory Standard Institute [M07-A9, Vol.32, N°2] was used with the following modifications.
(§4) Bacterial inocula were prepared in Mueller Hinton broth (MH2, BioMérieux, Marcy L'Etoile, France). They were dispensed in 96 well microtiter plates (10^6 CFU/ml of final inoculum, 192 µL per well).
(§5) To avoid cross-contaminations in microtiter plates, one row was left blank between each strain tested. Microplates were incubated for 18h at 37 °C in ambient air. Then MICs were read visually and, in case of visual reading difficulties, confirmed using a spectrophotometer at a wavelength of 630 nm (BioTek® EL808 Absorbance Microplate Reader). MICs corresponded to the minimum pyrrolic compound concentrations that allowed complete visual growth inhibition of bacteria. Drug-free cultures served as growth controls.
(§6) We used four Staphylococcus aureus strains. Two reference strains were provided by the French reference center for Staphylococcus spp. (Lyon, France), including one methicillin-susceptible (MSSA 476) and one methicillin-resistant (MRSA 252) S. aureus strains. The two remaining S. aureus strains were purchased from the CRBIP (Centre de Ressources Biologiques de l'Institut Pasteur): a vancomycin-intermediate strain (ATCC 106414) and a S. aureus strain (SA-1199B) resistant to fluoroquinolones due to overexpression of the NorA multidrug efflux pump. Coagulase-negative Staphylococcus strains included three reference strains purchased from CRBIP: a methicillin-susceptible S. epidermidis strain (ATCC 12228), a methicillin-resistant S. epidermidis strain (ATCC 49461), and a methicillin-susceptible S. sciuri strain (ATCC 29061). We also used 37 clinical strains belonging to the following coagulase-negative Staphylococcus species: S. arlettae (two strains), S. capitis (nine strains), S. epidermidis (one strain), S. haemolyticus (six strains), S. hominis (eight strains), S. lugdunensis (one strain), S. massiliensis (one strain), S. pettenkoferi (two strains), S. saprophyticus (two strains), S. simulans (one strain), and S. warneri (four strains) . Identification of the clinical strains was first obtained using VITEK® 2 System (Biomérieux) and confirmed by amplification and sequencing of the tuf gene (Reference: Bergeron, M., O. Dauwalder, M. Gouy, A.-M. Freydiere, M. Bes, H. Meugnier, Y. Benito, J. Etienne, G. Lina, F. Vandenesch, and S. Boisset. Species identification of staphylococci by amplification and sequencing of the tuf gene compared to the gap gene and by matrix-assisted laser desorption ionization time-of-flight mass spectrometry, Eur. J. Clin. Microbial. Infect. Dis. 2011, 30, 343-354).
(§7) The activity of pyrrolic compounds 3c, 3e-3j and 3n was first tested against 12 Staphylococcus sp. strains, including 7 reference strains and five clinical strains. The MICs of these compounds against Staphylococcus aureus ATCC 106414 (VISA) and Staphylococcus epidermidis ATCC 12228 are in accordance with those described in Tables I and II.

[6] = tested on: Staphylococcus capitis (CHUG-Scapi1); assay: as above; details: 10^6 CFU/ml, 18h at 37 °C
Experimental: as §3, §4, §5, §6, §7

[7] = tested on: Staphylococcus haemolyticus (CHUG-Shae1); assay: as above; details: 10^6 CFU/ml, 18h at 37 °C
Experimental: as §3, §4, §5, §6, §7

[8] = tested on: Staphylococcus aureus (MSSA476); assay: as above; details: 10^6 CFU/ml, 18h at 37 °C
Experimental: as §3, §4, §5, §6, §7

[9] = tested on: Staphylococcus epidermidis (ATCC 12228); assay: as above; details: ATCC12228, 10^6 CFU/ml, 18h at 37 °C
Experimental: as §3, §4, §5, §6, §7

[10] = tested on: Staphylococcus aureus (ATCC 106414, VISA); assay: as above; details: 10^6 CFU/ml, 18h at 37 °C
Experimental: as §3, §4, §5, §6, §7

[11] = tested on: Staphylococcus sciuri (ATCC 29061); assay: as above; details: Mammaliicoccus sciuri, ATCC29061, 10^6 CFU/ml, 18h at 37 °C
Experimental: as §3, §4, §5, §6, §7

[12] = tested on: Staphylococcus epidermidis (ATCC 49461); assay: as above; details: ATCC49461, 10^6 CFU/ml, 18h at 37 °C
Experimental: as §3, §4, §5, §6, §7

[13] = tested on: Staphylococcus hominis(CHUG-Shom1); assay: as above; details: 10^6 CFU/ml, 18h at 37 °C
Experimental: as §3, §4, §5, §6, §7

[14] = tested on: Staphylococcus pettenkoferi (CHUG-Spet1); assay: as above; details: 10^6 CFU/ml, 18h at 37 °C
Experimental: as §3, §4, §5, §6, §7

[15] = tested on: Staphylococcus warneri (CHUG-Swar1); assay: as above; details: 10^6 CFU/ml, 18h at 37 °C
Experimental: as §3, §4, §5, §6, §7

| Compound | inhibition at 10 µM [1] [%] | inhibition at 10 µM [2] [%] | inhibition at 10 µM (MRC5) [%] | MIC [3] [µg/mL] | MIC [4] [µg/mL] | MIC [5] [µg/mL] | MIC [6] [µg/mL] | MIC [7] [µg/mL] | MIC [8] [µg/mL] | MIC [9] [µg/mL] | MIC [10] [µg/mL] | MIC [11] [µg/mL] | MIC [12] [µg/mL] | MIC [13] [µg/mL] | MIC [14] [µg/mL] | MIC [15] [µg/mL] | inhibition at 1 µM [1] [%] | inhibition at 1 µM [2] [%] | inhibition at 1 µM (MRC5) [%] |
| --- | --- | --- | --- | --- | --- | --- | --- | --- | --- | --- | --- | --- | --- | --- | --- | --- | --- | --- | --- |
| CC(=O)c1c(C)[nH]c(C(c2ccc(Cl)cc2)c2[nH]c(C)c(C(C)=O)c2C)c1C [3c] | 17 ± 11 | 27 ± 7 | 9 ± 1 | > 128 | > 128 | 8 (≈ 20.2 µM) | 8 (≈ 20.2 µM) | 16 (≈ 40.3 µM) | 4 (≈ 10.1 µM) | > 32 | 4 (≈ 10.1 µM) | > 32 | > 32 | > 32 | > 32 | 8 (≈ 20.2 µM) | – | – | – |
| CC(=O)c1c(C)[nH]c(C(c2cc3ccccc3o2)c2[nH]c(C)c(C(C)=O)c2C)c1C [3e] | 24 ± 6 | 2 ± 3 | 7 ± 1 | > 128 | > 128 | 8 (≈ 19.9 µM) | 8 (≈ 19.9 µM) | > 32 | 4 (≈ 9.94 µM) | > 32 | 4 (≈ 9.94 µM) | > 32 | > 32 | > 32 | > 32 | 8 (≈ 19.9 µM) | – | – | – |
| CC(=O)c1c(C)[nH]c(C(c2cc3ccccc3s2)c2[nH]c(C)c(C(C)=O)c2C)c1C [3f] | 19 ± 4 | 23 ± 3 | 0 | > 128 | > 128 | 4 (≈ 9.56 µM) | > 32 | > 32 | 4 (≈ 9.56 µM) | > 32 | 2 (≈ 4.78 µM) | > 32 | > 32 | > 32 | > 32 | 4 (≈ 9.56 µM) | – | – | – |
| CC(=O)c1c(C)[nH]c(C(c2ccc(F)cc2)c2[nH]c(C)c(C(C)=O)c2C)c1C [3g] | 3 ± 6 | 11 ± 3 | 2 ± 1 | > 32 | > 32 | 8 (≈ 21 µM) | 8 (≈ 21 µM) | 16 (≈ 42.1 µM) | 4 (≈ 10.5 µM) | > 32 | 4 (≈ 10.5 µM) | > 32 | > 32 | > 32 | > 32 | 8 (≈ 21 µM) | – | – | – |
| CC(=O)c1c(C)[nH]c(C(c2[nH]c(C)c(C(C)=O)c2C)c2cccc3ccccc23)c1C [3h] | 53 ± 2 | 54 ± 4 | 25 ± 4 | > 128 | > 128 | 2 (≈ 4.85 µM) | 4 (≈ 9.7 µM) | 4 (≈ 9.7 µM) | 1 (≈ 2.42 µM) | > 32 | 1 (≈ 2.42 µM) | > 32 | > 32 | > 32 | > 32 | 2 (≈ 4.85 µM) | 5 | 0 | 0 |
| CC(=O)c1c(C)[nH]c(C(c2[nH]c(C)c(C(C)=O)c2C)c2csc3ccccc23)c1C [3i] | 50 ± 1 | 95 ± 1 | 84 ± 1 | > 128 | > 128 | 1 (≈ 2.39 µM) | 1 (≈ 2.39 µM) | 4 (≈ 9.56 µM) | 0.5 (≈ 1.19 µM) | > 32 | 0.5 (≈ 1.19 µM) | > 32 | > 32 | > 32 | > 32 | 1 (≈ 2.39 µM) | 10 | 0 | 0 |
| COC(=O)c1cccc(C(c2[nH]c(C)c(C(C)=O)c2C)c2[nH]c(C)c(C(C)=O)c2C)c1 [3j, Methyl-3-[bis(4-acetyl-3,5-dimethyl-1H-pyrrol-2-yl)methyl]benzoate] | 1 ± 3 | 11 ± 3 | 5 ± 1 | > 32 | > 32 | 8 (≈ 19 µM) | 16 (≈ 38 µM) | 16 (≈ 38 µM) | 4 (≈ 9.51 µM) | > 32 | 4 (≈ 9.51 µM) | > 32 | > 32 | > 32 | > 32 | 16 (≈ 38 µM) | – | – | – |
| CC(=O)c1c(C)[nH]c(C(c2[nH]c(C)c(C(C)=O)c2C)c2csc3ccc(Br)cc23)c1C [3n] | 83 ± 1 | 100 ± 1 | 96 ± 1 | – | – | 0.125 (≈ 0.251 µM) | 0.125 (≈ 0.251 µM) | 1 (≈ 2.01 µM) | 0.125 (≈ 0.251 µM) | > 32 | 0.125 (≈ 0.251 µM) | > 32 | > 32 | > 32 | > 32 | 0.25 (≈ 0.503 µM) | 47 | 81 | 67 |
